What was measured:
[1] = system: MDA-MB-231 cells; experiment: CellTiter-Glo viability assay, WT MDA-MB-231; assay type: cell-based; conditions: Homo sapiens; WT MDA-MB-231, 72 hours, CellTiter-Glo; read-out: EC50 cell viability
Source text: MDA-MB-231 (human triple-negative breast cancer cells) and HEK293T (human embryonic kidney cells) were purchased from the American type culture collection (ATCC) and maintained in Dulbecco's modified Eagle's medium (DMEM) (Gibco) supplemented with 10% (v/v) heat-inactivated fetal bovine serum (FBS) (Gibco) and penicillin/streptomycin (100 U mL^−1 each). HiBiT-CCNK KI A549 cells, purchased from Promega, were maintained in F12 medium supplemented with 10% (v/v) heat-inactivated fetal bovine serum (FBS) (Gibco) and penicillin/streptomycin (100 U mL^−1 each). DDB1-knockdown MDA-MB-231 and DDB1-knockdown HEK293T cell lines were maintained in the same media formulation as their corresponding wild-type cell lines. All cell lines were cultured at 37 °C in an incubator with CO2 levels maintained at 5%.
Cell viability was measured by Cell Titer Glo assay kit (Promega, USA). EC50 was determined from the nonlinear regression and a four-parameter algorithm on the GraphPad Prism software.

[2] = system: HiBiT-tagged cyclin K; experiment: HiBiT cyclin K degradation assay (DC50, Dmax); assay type: cell-based; conditions: HiBiT-CCNK KI A549 cells, 2 hours
Procedure: Next, we utilized HiBiT technology (Promega) for quantitative analysis of cyclin K degrader activity. […] Importantly, knockout of CDK12 using CRISPR/Cas9 protected cyclin K from SR-4835-induced degradation (Fig. 1D). We verified the depletion of CDK12 in HEK-293T cells (Fig. S3, ESI ^†).
The HiBiT-CCNK KI A549 cells (Promega) were seeded in 384 well plate and treated with the test compounds for 2 hours in a dose dependent manner. Nano-Glo® HiBiT Lytic Detection System (Promega) composed of the Nano-Glo® HiBiT Lytic Substrate, Nano-Glo® HiBiT Lytic Buffer and LgBiT Protein was used as per the manufacturer's instructions. Briefly, a 2× Nano-Glo® HiBiT Lytic Detection Reagent mixture was prepared by adding 20 μL of Nano-Glo® HiBiT Lytic Substrate and 10 μL of LgBiT protein per every 1 mL of Nano-Glo® HiBiT Lytic Buffer. After incubating the cells with the 2× Nano-Glo® HiBiT Lytic Detection Reagent mixture, luminescence was measured. HiBiT tagged cyclin K present at any given concentration was measured by normalizing the luminescence signal at that concentration to the luminescence signal from the DMSO (control) cells. The concentration necessary to achieve a 50% reduction in cyclin K levels (DC50) and the maximum achievable reduction in cyclin K levels (Dmax) was computed from this assay.

[3] = molecular target: T1, CDK12/cyclin K + DDB1 (Homo sapiens, UniProt Q16531+Q9NYV4, DEL396-705); experiment: Microscale thermophoresis, ternary complex formation; assay type: binding; conditions: MST, labeled DDB1ΔBPB + CDK12/cyclin K
T1 construct: The kinase domain of human CDK12 (Uniprot: Q9NYV4; a.a; 715–1050); GST (N, cleaved yes); made in house; host or cells: Spodoptera frugiperda SF9 insect cells (Bac-to-Bac); CDK12/cyclin K co-infected with S. cerevisiae CAK1
Procedure: Finally, the capacity of small molecules to induce a ternary complex between CDK12/cyclin K and DDB1 in vitro was assessed by microscale thermophoresis (MST). Labeled DDB1ΔBPB was combined with purified CDK12/cyclin K, and fluorescence intensity was monitored with increasing compound concentrations.
Cell pellets were harvested 48 hours post infection via centrifugation and lysed in buffer A (50 mM Tris–HCl (pH 8.0), 200 mM NaCl, 10 mM imidazole, 0.5 mM tris(2-carboxyethyl) phosphine (TCEP)) supplemented with EDTA-free Pierce™ protease inhibitor tablet (Thermo Fisher Scientific). […] The concentrated protein at 2 mg mL^−1 was flash-frozen in liquid nitrogen and stored at −80 °C.
Full-length S. cerevisiae CAK1 (Uniprot: P43568) with an N-terminal His6 tag was subcloned into pFastBac 1 vector. […] The eluted CDK12/cyclin K complex was concentrated to 2 mg mL^−1, flash-frozen in liquid nitrogen and stored at −80 °C.
A protocol to assess ternary binding of molecular glues with CDK12/cycK and DDB1 by MST was established using published procedures for PROTAC interaction with bromodomains and E3 ubiquitin ligases.[38] His8-DDB1-ΔBPB was labeled with the MO-L018 Monolith™ His-tag Labeling Kit RED-tris-NTA 2nd Generation (NanoTemper Technologies) following the instruction manual. 100 nM dye was mixed with 200 nM DDB1 in 50 mM HEPES pH 7.5, 150 mM NaCl, 5% glycerol, 0.05% Tween, and incubated at room temperature for 30 min. […] MST traces were recorded using standard parameters: 5 s MST power off, 30 s MST power on and 5 s MST power off. Measurements were taken at −1 to 0 s (cold region) and 9–10 s (hot region). Data were analyzed using a fitting function derived from the law of mass action:1 [drawing 6] where f(c) is the fluorescence signal (Fnorm) at a given ligand concentration (c), B is Fnorm of fully liganded DDB1 at high ligand concentrations, U is Fnorm of DDB1 alone at low ligand concentrations, Kd is the dissociation constant or binding affinity, cT is the final concentration of DDB1 in the assay (Fig. 3G). For normalization, the data were first transformed using eqn (2) where y is the fraction bound, followed by fitting to eqn (3) (Fig. 5B–E).2 [drawing 7] 3 [drawing 8]

T1 sequence (Q16531 with tags, fused parts or gaps DEL396-705): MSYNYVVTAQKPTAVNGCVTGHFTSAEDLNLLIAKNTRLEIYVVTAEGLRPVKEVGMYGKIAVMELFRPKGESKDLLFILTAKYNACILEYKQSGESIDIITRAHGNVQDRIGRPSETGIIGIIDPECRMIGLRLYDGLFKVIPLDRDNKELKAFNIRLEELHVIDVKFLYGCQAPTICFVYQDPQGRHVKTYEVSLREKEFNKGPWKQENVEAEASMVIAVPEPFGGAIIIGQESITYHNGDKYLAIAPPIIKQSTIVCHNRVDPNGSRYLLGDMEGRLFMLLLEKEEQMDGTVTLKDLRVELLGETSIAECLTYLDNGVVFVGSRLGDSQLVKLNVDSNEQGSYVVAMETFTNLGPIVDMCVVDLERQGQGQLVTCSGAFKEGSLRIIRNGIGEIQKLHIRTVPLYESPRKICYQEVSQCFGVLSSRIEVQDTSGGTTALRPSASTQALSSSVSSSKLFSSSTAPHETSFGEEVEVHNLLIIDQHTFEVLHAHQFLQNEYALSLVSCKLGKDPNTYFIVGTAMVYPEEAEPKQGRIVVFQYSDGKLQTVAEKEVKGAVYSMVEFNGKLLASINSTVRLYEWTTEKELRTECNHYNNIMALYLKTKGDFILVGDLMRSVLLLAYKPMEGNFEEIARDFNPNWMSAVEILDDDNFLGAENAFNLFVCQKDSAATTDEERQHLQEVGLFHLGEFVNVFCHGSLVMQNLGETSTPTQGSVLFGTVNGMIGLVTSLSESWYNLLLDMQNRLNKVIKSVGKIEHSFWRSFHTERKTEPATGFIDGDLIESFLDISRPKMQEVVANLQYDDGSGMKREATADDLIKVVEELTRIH
T1 sequence (Q9NYV4 715-1050, stated change not applied): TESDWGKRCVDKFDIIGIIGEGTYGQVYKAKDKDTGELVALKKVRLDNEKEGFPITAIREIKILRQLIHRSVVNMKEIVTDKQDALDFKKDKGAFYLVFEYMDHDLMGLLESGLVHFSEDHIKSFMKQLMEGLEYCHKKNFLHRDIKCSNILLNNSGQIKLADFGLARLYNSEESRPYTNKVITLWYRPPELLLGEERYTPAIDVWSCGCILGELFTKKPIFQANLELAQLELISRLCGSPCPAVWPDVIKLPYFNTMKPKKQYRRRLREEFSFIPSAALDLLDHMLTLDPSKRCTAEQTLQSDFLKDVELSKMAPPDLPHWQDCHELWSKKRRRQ
T1 sequence (O75909 11-267 partner limits assumed): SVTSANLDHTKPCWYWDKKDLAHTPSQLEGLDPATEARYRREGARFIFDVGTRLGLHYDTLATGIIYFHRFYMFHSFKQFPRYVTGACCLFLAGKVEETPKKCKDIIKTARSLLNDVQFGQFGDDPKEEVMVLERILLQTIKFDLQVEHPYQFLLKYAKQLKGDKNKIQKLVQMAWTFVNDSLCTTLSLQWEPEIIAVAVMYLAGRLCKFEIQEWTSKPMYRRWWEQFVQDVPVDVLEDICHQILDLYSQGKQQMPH

EC50 [1] | DC50 ([2]; read-out: DC50 (concentration for 50% reduction in cyclin K levels)) | ability to induce ternary complex [3] | Structure (SMILES) | Dmax (maximum reduction in cyclin K levels) ([2]; vs DMSO) | reduction in cyclin K levels ([2]; dose-response)
55 nM | ~90 nM |  | Cn1cc(-n2cnc3c(NCc4nc5cc(Cl)c(Cl)cc5[nH]4)nc(N4CCOCC4)nc32)cn1 [SR-4835] | > 95% | 
72 nM |  | inability to induce such a complex | CN(C)C/C=C/C(=O)Nc1ccc(C(=O)N2CCC[C@@H](Nc3ncc(Cl)c(-c4c[nH]c5ccccc45)n3)C2)cc1 [THZ531, reference compound] |  | no reduction in cyclin K levels
